Experimental data published in US7135466B2 (Kirin Beer Kabushiki Kaisha, priority 1999, dated 2006).

target: T1, c-kit (Homo sapiens, UniProt P10721); assay: Inhibitory activity against c-kit autophosphorylation (MO7e cells, h-SCF); type: cell-based; details: MO7e cells, h-SCF stimulation; read-out: c-kit IC50
T1 construct: MO7e (human megakaryocytic leukemia cell line) which had been arrested for 20 hr; endogenous in cells; host or cells: MO7e human megakaryocytic leukemia cell line
How it was run: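 MO7e human megakaryocytic leukemia cells, arrested 20 hr, treated with compound 1 hr, then stimulated with 50 ng/ml h-SCF for 5 min and lysed. Lysates captured on immobilized anti-phosphotyrosine antibody, detected with anti-c-kit primary and HRP secondary antibody; absorbance at 450 nm.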

T1 sequence (P10721 26-976): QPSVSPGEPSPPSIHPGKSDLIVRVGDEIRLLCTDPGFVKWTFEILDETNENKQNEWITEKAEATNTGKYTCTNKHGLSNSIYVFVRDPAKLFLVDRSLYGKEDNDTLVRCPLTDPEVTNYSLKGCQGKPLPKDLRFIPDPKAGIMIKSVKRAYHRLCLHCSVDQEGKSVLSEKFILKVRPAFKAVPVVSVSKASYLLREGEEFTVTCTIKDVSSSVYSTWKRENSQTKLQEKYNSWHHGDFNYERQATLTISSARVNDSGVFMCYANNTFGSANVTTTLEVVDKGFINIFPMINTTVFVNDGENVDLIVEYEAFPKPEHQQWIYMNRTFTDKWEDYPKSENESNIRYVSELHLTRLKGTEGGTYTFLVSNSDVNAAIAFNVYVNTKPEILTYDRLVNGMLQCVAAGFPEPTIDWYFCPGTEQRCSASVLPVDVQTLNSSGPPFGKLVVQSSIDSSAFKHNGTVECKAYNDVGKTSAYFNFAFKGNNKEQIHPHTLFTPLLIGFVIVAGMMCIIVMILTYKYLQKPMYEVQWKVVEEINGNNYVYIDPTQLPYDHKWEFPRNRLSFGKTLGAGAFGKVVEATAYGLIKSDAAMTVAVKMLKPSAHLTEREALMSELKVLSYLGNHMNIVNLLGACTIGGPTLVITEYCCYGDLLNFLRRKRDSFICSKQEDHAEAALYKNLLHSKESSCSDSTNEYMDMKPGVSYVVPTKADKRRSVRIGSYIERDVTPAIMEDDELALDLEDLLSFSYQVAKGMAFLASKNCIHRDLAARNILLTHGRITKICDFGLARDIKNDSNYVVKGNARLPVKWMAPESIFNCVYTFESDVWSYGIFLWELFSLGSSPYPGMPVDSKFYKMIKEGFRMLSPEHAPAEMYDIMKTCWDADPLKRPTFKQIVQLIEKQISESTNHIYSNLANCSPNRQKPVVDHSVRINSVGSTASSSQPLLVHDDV

Structure (SMILES) | IC50 [µM]
COc1cc2nccc(Oc3ccc(NC(=S)NC(=O)c4cccc(Br)c4)c(F)c3)c2cc1OC [Example 940, N-(3-Bromobenzoyl)-N′-{4-[(6,7-dimethoxy-4-quinolyl)oxy]-2-fluorophenyl}thiourea] | 0.292
COc1cc2nccc(Oc3ccc(NC(=S)NC(=O)c4cccc(C)c4)cc3F)c2cc1OC [Example 941, N-{4-[(6,7-Dimethoxy-4-quinolyl)oxy]-3-fluorophenyl}-N′-(3-methylbenzoyl)thiourea] | 0.145
COc1cc2nccc(Oc3ccc(NC(=S)NC(=O)c4cccc(F)c4)cc3F)c2cc1OC [Example 942, N-{4-[(6,7-Dimethoxy-4-quinolyl)oxy]-3-fluorophenyl}-N′-(3-fluorobenzoyl)thiourea] | 0.335
COc1cc2nccc(Oc3ccc(NC(=S)NC(=O)c4cccc(Cl)c4)cc3F)c2cc1OC [Example 943, N-(3-Chlorobenzoyl)-N′-{4-[(6,7-dimethoxy-4-quinolyl)oxy]-3-fluorophenyl}thiourea] | 0.136
COc1cccc(C(=O)NC(=S)Nc2ccc(Oc3ccnc4cc(OC)c(OC)cc34)c(F)c2)c1 [Example 944, N-{4-[(6,7-Dimethoxy-4-quinolyl)oxy]3-fluorophenyl}-N′-(3-methoxybenzoyl)thiourea] | 0.14
COc1cc2nccc(Oc3ccc(NC(=S)NC(=O)c4cccc(C(F)(F)F)c4)cc3F)c2cc1OC [Example 945, N-{4-[(6,7-Dimethoxy-4-quinolyl)oxy]-3-fluorophenyl}-N′-[3-(trifluoromethyl)benzoyl]thiourea] | 0.131
COc1cc2nccc(Oc3ccc(NC(=S)NC(=O)c4cccc(Br)c4)cc3F)c2cc1OC [Example 946, N-(3-Bromobenzoyl)-N′-{4-[(6,7-dimethoxy-4-quinolyl)oxy]-3-fluorophenyl}thiourea] | 0.142
COc1cc2nccc(Oc3ccc(NC(=S)NC(=O)c4cccc(C)c4)cc3Cl)c2cc1OC [Example 947, N-{3-Chloro-4-[(67-dimethoxy-4-quinolyl)oxy]phenyl}-N′-(3-methylbenzoyl)thiourea] | 0.375
COc1cc2nccc(Oc3ccc(NC(=S)NC(=O)c4cccc(F)c4)cc3Cl)c2cc1OC [Example 948, N-{3-Chloro-4-[(67-dimethoxy-4-quinolyl)oxy]phenyl}-N′-(3-fluorobenzoyl)thiourea] | 0.83
COc1cc2nccc(Oc3ccc(NC(=S)NC(=O)c4cccc(Cl)c4)cc3Cl)c2cc1OC [Example 949] | 0.25
COc1cccc(C(=O)NC(=S)Nc2ccc(Oc3ccnc4cc(OC)c(OC)cc34)c(Cl)c2)c1 [Example 950, N-{3-Chloro-4-[(6,7-dimethoxy-4-quinolyl)oxy]phenyl}-N′-(3-methoxybenzoyl)thiourea] | 0.224
COc1cc2nccc(Oc3ccc(NC(=S)NC(=O)c4cccc(C(F)(F)F)c4)cc3Cl)c2cc1OC [Example 951, N-{3-Chloro-4-[(6,7-dimethoxy-4-quinolyl)oxy]phenyl}-N′-[3-(trifluoromethyl)benzoyl]-thiourea] | 0.124
COc1cc2nccc(Oc3ccc(NC(=S)NC(=O)c4cccc(Br)c4)cc3Cl)c2cc1OC [Example 952, N-(3-Bromobenzoyl)-N′-{3-chloro-4-[(6,7-dimethoxy-4-quinolyl)oxy]phenyl}thiourea] | 0.317
COc1cc2ncnc(Oc3ccc(NC(=S)NC(=O)c4cccc(C)c4)cc3)c2cc1OC [Example 954, N-{4-[(6,7-Dimethoxy-4-quinazolinyl)-oxy]phenyl}-N′-(3-methylbenzoyl)thiourea] | 0.131
COc1cc2ncnc(Oc3ccc(NC(=S)NC(=O)c4cccc(Cl)c4)cc3)c2cc1OC [Example 955, N-(3-Chlorobenzoyl)-N′-{4-[(6,7-dimethoxy-4-quinazolinyl)oxy]phenyl}thiourea] | 0.251
COc1cccc(C(=O)NC(=S)Nc2ccc(Oc3ncnc4cc(OC)c(OC)cc34)cc2)c1 [Example 956, N-{4-[(6,7-Dimethoxy-4-quinazolinyl)oxy]phenyl}-N′-(3-methoxybenzoyl)thiourea] | 0.326
COc1cc2ncnc(Oc3ccc(NC(=S)NC(=O)c4cccc(C(F)(F)F)c4)cc3)c2cc1OC [Example 957, N-{4-[(6,7-Dimethoxy-4-quinazolinyl)oxy]phenyl}-N′-[3-(trifluoromethyl)benzoyl]thiourea] | 0.136
COc1cc2ncnc(Oc3ccc(NC(=S)NC(=O)c4cccc(Br)c4)cc3)c2cc1OC [Example 958, N-(3-Bromobenzoyl)-N′-{4-[(6,7-dimethoxy-4-quinazolinyl)oxy]phenyl}thiourea] | 0.194
COc1cc2nccc(Oc3ccc(NC(=S)NC(=O)c4ccc(Cl)cc4)cc3)c2cc1OC [Example 960, N-(4-Chlorobenzoyl)-N′-{4-[(6,7-dimethoxy-4-quinolyl)oxy]phenyl}thiourea] | 0.629
COc1cc2nccc(Oc3ccc(NC(=S)NC(=O)c4ccc(F)cc4)cc3)c2cc1OC [Example 961, N-{4-[(6,7-Dimethoxy-4-quinolyl)oxy]phenyl}-N′-(4-fluorobenzoyl)thiourea] | 0.74
COc1ccc(C(=O)NC(=S)Nc2ccc(Oc3ccnc4cc(OC)c(OC)cc34)cc2)cc1 [Example 963, N-{4-[(6,7-Dimethoxy-4-quinolyl)oxy]phenyl}-N′-(4-methoxybenzoyl)thiourea] | 0.701
COc1cc2nccc(Oc3ccc(NC(=S)NC(=O)c4ccc(F)cc4)c(F)c3)c2cc1OC [Example 966, N-{4-[(6,7-Dimethoxy-4-quinolyl)oxy]-2-fluorophenyl}-N′-(4-fluorobenzoyl)thiourea] | 0.233

Other lines, results leading:

IC50 [µM] | Structure (SMILES)
0.3 | COc1cc2nccc(Oc3ccc(NC(=S)NC(=O)c4ccc(C)cc4)cc3F)c2cc1OC [Example 970, N-{4-[(6,7-Dimethoxy-4-quinolyl)oxy]-3-fluorophenyl}-N′-(4-methylbenzoyl)thiourea]
0.523 | COc1cc2nccc(Oc3ccc(NC(=S)NC(=O)c4ccc(Cl)cc4)cc3F)c2cc1OC [Example 971, N-(4-Chlorobenzoyl)-N′-{4-[(6,7-dimethoxy-4-quinolyl)oxy]-3-fluorophenyl}thiourea]
0.532 | COc1cc2nccc(Oc3ccc(NC(=S)NC(=O)c4ccc(F)cc4)cc3F)c2cc1OC [Example 972, N-{4-[(6,7-Dimethoxy-4-quinolyl)oxy]-3-fluorophenyl}-N′-(4-fluorobenzoyl)thiourea]
0.29 | COc1cc2nccc(Oc3ccc(NC(=S)NC(=O)c4ccc([N+](=O)[O-])cc4)cc3F)c2cc1OC [Example 975, N-{4-[(6,7-Dimethoxy-4-quinolyl)oxy]-3-fluorophenyl}-N′-(4-nitrobenzoyl)thiourea]
0.788 | COc1ccc(C(=O)NC(=S)Nc2ccc(Oc3ccnc4cc(OC)c(OC)cc34)c(F)c2)cc1 [Example 976, N-{4-[(6,7-Dimethoxy-4-quinolyl)oxy]-3-fluorophenyl}-N′-(4-methoxybenzoyl)thiourea]
0.824 | COc1cc2nccc(Oc3ccc(NC(=S)NC(=O)c4ccc(C)cc4)cc3Cl)c2cc1OC [Example 977, N-{3-Chloro-4-[(6,7-dimethoxy-4-quinolyl)oxy]phenyl}-N′-(4-methylbenzoyl)thiourea]
0.811 | COc1cc2nccc(Oc3ccc(NC(=S)NC(=O)c4ccc(Br)cc4)cc3Cl)c2cc1OC [Example 980, N-(4-Bromobenzoyl)-N′-{3-chloro-4-[(6,7-dimethoxy-4-quinolyl)oxy]phenyl}thiourea]

same assay, conditions: Mo7e, figure in parentheses in −( ); at 1000 nM

Structure (SMILES) | inhibition at 1 µM [%]
COc1cc2nccc(Oc3ccc(NC(=S)NC(=O)c4cccc(C)c4)c([N+](=O)[O-])c3)c2cc1OC [Example 953, N-{4-[(6,7-Dimethoxy-4-quinolyl)oxy]-2-nitrophenyl}-N′-(3-methylbenzoyl)thiourea] | 32
COc1cc2nccc(Oc3ccc(NC(=S)NC(=O)c4ccc([N+](=O)[O-])cc4)cc3)c2cc1OC [Example 962, N-{4-[(6,7-Dimethoxy-4-quinolyl)oxy]phenyl}-N′-(4-nitrobenzoyl)thiourea] | 35
COc1cc2nccc(Oc3ccc(NC(=S)NC(=O)c4ccc(C)cc4)c(F)c3)c2cc1OC [Example 964, N-{4-[(6,7-Dimethoxy-4-quinolyl)oxy]-2-fluorophenyl}-N′-(4-methylbenzoyl)thiourea] | 46
COc1cc2nccc(Oc3ccc(NC(=S)NC(=O)c4ccc(Cl)cc4)c(F)c3)c2cc1OC [Example 965, N-(4-Chlorobenzoyl)-N′-{4-[(6,7-dimethoxy-4-quinolyl)oxy]-2-fluorophenyl}thiourea] | 24

More lines, now with the values ahead:

inhibition at 1 µM [%] | Structure (SMILES)
27 | COc1cc2nccc(Oc3ccc(NC(=S)NC(=O)c4ccc([N+](=O)[O-])cc4)c(F)c3)c2cc1OC [Example 968, N-{4-[(6,7-Dimethoxy-4-quinolyl)oxy]-2-fluorophenyl}-N′-(4-nitrobenzoyl)thiourea]
19 | COc1ccc(C(=O)NC(=S)Nc2ccc(Oc3ccnc4cc(OC)c(OC)cc34)cc2F)cc1 [Example 969, N-{4-[(6,7-Dimethoxy-4-quinolyl)oxy]-2-fluorophenyl}-N′-(4-methoxybenzoyl)thiourea]
0 | COc1cc2nccc(Oc3ccc(NC(=S)NC(=O)c4ccc(Br)cc4)cc3F)c2cc1OC [Example 973, N-(4-Bromobenzoyl)-N′-{4-[(6,7-dimethoxy-4-quinolyl)oxy]-3-fluorophenyl}thiourea]
34 | COc1cc2nccc(Oc3ccc(NC(=S)NC(=O)c4ccc(I)cc4)cc3F)c2cc1OC [Example 974, N-{4-[(6,7-Dimethoxy-4-quinolyl)oxy]-3-fluorophenyl}-N′-(4-iodobenzoyl)thiourea]
22 | COc1cc2nccc(Oc3ccc(NC(=S)NC(=O)c4ccc(Cl)cc4)cc3Cl)c2cc1OC [Example 978]
25 | COc1cc2nccc(Oc3ccc(NC(=S)NC(=O)c4ccc(F)cc4)cc3Cl)c2cc1OC [Example 979, N-{3-Chloro-4-[(6,7-dimethoxy-4-quinolyl)oxy]phenyl}-N′-(4-fluorobenzoyl)thiourea]
